According to PubChem BioAssay (NCI):
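Method: 48-hour compound exposure of cells in 96-well plates, five concentrations, linear interpolation of endpoints. GI50: concentration for 50% inhibition of growth. TGI: concentration producing complete growth inhibition.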

What was measured:
Assay in all cases: NCI anticancer screen, dose series, 48 h
[1] = test system: NCI/ADR-RES ovarian
[2] = test system: UO-31 renal
[3] = test system: HCT-15 colon
[4] = test system: ACHN renal
[5] = test system: MALME-3M melanoma
[6] = test system: SNB-19 CNS
[7] = test system: HOP-62 NSCLC
[8] = test system: CAKI-1 renal
[9] = test system: CCRF-CEM leukemia
[10] = test system: SF-295 CNS
[11] = test system: SF-539 CNS
[12] = test system: LOX IMVI melanoma
[13] = test system: MOLT-4 leukemia
[14] = test system: SR leukemia
[15] = test system: HCC-2998 colon
[16] = test system: MCF7 breast
[17] = test system: SK-MEL-2 melanoma
[18] = test system: IGROV1 ovarian
[19] = test system: NCI-H460 lung
[20] = test system: HL-60(TB) leukemia
[21] = test system: K-562 leukemia
[22] = test system: MDA-MB-435
[23] = test system: SNB-75 CNS
[24] = test system: MDA-MB-231 breast
[25] = test system: M14 melanoma
[26] = test system: SN12C renal
[27] = test system: OVCAR-4 ovarian
[28] = test system: RPMI-8226 leukemia
[29] = test system: DU-145 prostate
[30] = test system: U251 CNS
[31] = test system: OVCAR-3 ovarian
[32] = test system: SK-OV-3 ovarian
[33] = test system: COLO 205 colon
[34] = test system: HS 578T breast
[35] = test system: HCT-116 colon
[36] = test system: KM12 colon
[37] = test system: NCI-H226 lung
[38] = test system: TK-10 renal
[39] = test system: 786-0 renal
[40] = test system: SW-620 colon
[41] = test system: NCI-H23 lung
[42] = test system: NCI-H522 lung
[43] = test system: UACC-257 melanoma
[44] = test system: RXF 393 renal
[45] = test system: EKVX NSCLC
[46] = test system: SK-MEL-28 melanoma
[47] = test system: SF-268 CNS
[48] = test system: SK-MEL-5 melanoma
[49] = test system: A498 renal
[50] = test system: HOP-92 NSCLC
[51] = test system: OVCAR-5 ovarian
[52] = test system: BT-549 breast
[53] = test system: A549 NSCLC
[54] = test system: UACC-62 melanoma
[55] = test system: HT29 colon
[56] = test system: OVCAR-8 ovarian
[57] = test system: T-47D breast
[58] = test system: PC-3 prostate

COc1cc2c(Nc3ccc(NC(=O)Nc4ccc(Cl)c(C(F)(F)F)c4)c(Cl)c3)ncnc2cc1OCCCN1CCN(C)CC1
GI50 [1]: 54.4 µM | TGI [1]: > 100 µM | GI50 [2]: > 100 µM | TGI [2]: > 100 µM | GI50 [3]: 3.9 µM | TGI [3]: > 100 µM | GI50 [4]: 2.24 µM | TGI [4]: > 100 µM

COc1ccc(-c2cc(-c3ccc(Nc4nc(Nc5ccccc5)nc(Nc5ccc(Cl)cc5)n4)cc3)nc(N)n2)cc1
GI50 [5]: 15.2 µM | TGI [5]: > 50 µM | GI50 [6]: 9.03 µM | TGI [6]: 24.6 µM | GI50 [7]: 10.3 µM | TGI [7]: 33.1 µM | GI50 [8]: 5.4 µM | TGI [8]: 23.3 µM | GI50 [9]: 6 µM | TGI [9]: 29.5 µM | GI50 [1]: 37.4 µM | TGI [1]: > 50 µM | GI50 [10]: 7.92 µM | TGI [10]: 25.8 µM | GI50 [11]: 10.3 µM | TGI [11]: 25.8 µM | GI50 [12]: 11.1 µM | TGI [12]: 39 µM | GI50 [13]: 0.623 µM | TGI [13]: 12 µM | GI50 [14]: 5.63 µM | TGI [14]: 18.7 µM | GI50 [15]: 12.8 µM | TGI [15]: 35 µM | GI50 [16]: 5.34 µM | TGI [16]: 21 µM | GI50 [17]: 13.1 µM | TGI [17]: 44.1 µM | GI50 [2]: 8.13 µM | TGI [2]: > 50 µM | GI50 [18]: 6.27 µM | TGI [18]: 28.2 µM | GI50 [19]: 8.57 µM | TGI [19]: 26.7 µM | GI50 [20]: 2.31 µM | TGI [20]: 17.9 µM | GI50 [21]: 4.63 µM | TGI [21]: 16.5 µM | GI50 [22]: 14.5 µM | TGI [22]: > 50 µM | GI50 [23]: 6.02 µM | TGI [23]: 48.1 µM | GI50 [24]: 8.28 µM | TGI [24]: > 50 µM | GI50 [25]: 9.33 µM | TGI [25]: 28.8 µM | GI50 [26]: 11.8 µM | TGI [26]: 32.6 µM | GI50 [27]: 10.7 µM | TGI [27]: > 50 µM | GI50 [28]: 5.15 µM | TGI [28]: 20.5 µM | GI50 [29]: 12.1 µM | TGI [29]: 26.9 µM | GI50 [30]: 8.41 µM | TGI [30]: > 50 µM | GI50 [31]: 11.3 µM | TGI [31]: > 50 µM | GI50 [32]: 22.7 µM | TGI [32]: > 50 µM | GI50 [3]: 13.5 µM | TGI [3]: > 50 µM | GI50 [33]: 2.29 µM | TGI [33]: 16.7 µM | GI50 [34]: 6.65 µM | TGI [34]: 32.2 µM | GI50 [4]: 16.4 µM | TGI [4]: > 50 µM | GI50 [35]: 6.74 µM | TGI [35]: 16.8 µM | GI50 [36]: 4.72 µM | TGI [36]: 45.1 µM | GI50 [37]: 12.9 µM | TGI [37]: > 50 µM | GI50 [38]: 14.2 µM | TGI [38]: > 50 µM | GI50 [39]: 11.5 µM | TGI [39]: 33.1 µM | GI50 [40]: 13.1 µM | TGI [40]: 44.9 µM | GI50 [41]: 9.4 µM | TGI [41]: 25.9 µM | GI50 [42]: 9.02 µM | TGI [42]: 27.1 µM | GI50 [43]: 15.9 µM | TGI [43]: 45.5 µM | GI50 [44]: 12.1 µM | TGI [44]: 30.7 µM | GI50 [45]: 6.55 µM | TGI [45]: > 50 µM | GI50 [46]: 10.9 µM | TGI [46]: 26.5 µM | GI50 [47]: 13.3 µM | TGI [47]: 46.8 µM | GI50 [48]: 6.55 µM | TGI [48]: 20.9 µM | GI50 [49]: 9.29 µM | TGI [49]: 20 µM | GI50 [50]: 5.28 µM | TGI [50]: 19.3 µM | GI50 [51]: 9.72 µM | TGI [51]: 26.3 µM | GI50 [52]: 10 µM | TGI [52]: 29.5 µM | GI50 [53]: 20.5 µM | TGI [53]: > 50 µM | GI50 [54]: 12.1 µM | TGI [54]: > 50 µM | GI50 [55]: 7.56 µM | TGI [55]: 21.8 µM | GI50 [56]: 15.1 µM | TGI [56]: > 50 µM | GI50 [57]: 6.3 µM | TGI [57]: 21.7 µM

CCN1CCN(c2nc(C)cc(N(CCCNc3ccnc4cc(Cl)ccc34)Cc3ccc4c(c3)OCO4)n2)CC1
GI50 [5]: 1.77 µM | TGI [5]: 3.34 µM | GI50 [6]: 2.98 µM | TGI [6]: 11.3 µM | GI50 [7]: 1.46 µM | TGI [7]: 4.09 µM | GI50 [9]: 1.81 µM | TGI [9]: 7.14 µM | GI50 [1]: 2.63 µM | TGI [1]: 10.1 µM | GI50 [10]: 1.81 µM | TGI [10]: 3.39 µM | GI50 [11]: 1.63 µM | TGI [11]: 3.07 µM | GI50 [12]: 1.62 µM | TGI [12]: 3.18 µM | GI50 [13]: 1.2 µM | TGI [13]: 4.35 µM | GI50 [14]: 0.339 µM | TGI [14]: 1.58 µM | GI50 [15]: 1.62 µM | TGI [15]: 3.85 µM | GI50 [16]: 1.58 µM | TGI [16]: 10.2 µM | GI50 [17]: 1.83 µM | TGI [17]: 3.5 µM | GI50 [2]: 1.31 µM | TGI [2]: 2.64 µM | GI50 [58]: 2.43 µM | TGI [58]: 11 µM | GI50 [18]: 1.61 µM | TGI [18]: 5.06 µM | GI50 [19]: 1.53 µM | TGI [19]: 3.54 µM | GI50 [20]: 2.11 µM | TGI [20]: 3.96 µM | GI50 [21]: 0.361 µM | TGI [21]: 1.51 µM | GI50 [22]: 1.56 µM | TGI [22]: 3.06 µM | GI50 [23]: 1.48 µM | TGI [23]: 3.1 µM | GI50 [24]: 1.2 µM | TGI [24]: 2.9 µM | GI50 [25]: 1.8 µM | TGI [25]: 3.38 µM | GI50 [26]: 2.03 µM | TGI [26]: 5.55 µM | GI50 [27]: 1.75 µM | TGI [27]: 7.12 µM | GI50 [28]: 0.794 µM | TGI [28]: 3.02 µM | GI50 [30]: 1.56 µM | TGI [30]: 3.17 µM | GI50 [31]: 1.61 µM | TGI [31]: 3.96 µM | GI50 [32]: 2.58 µM | TGI [32]: 6.7 µM | GI50 [3]: 1.07 µM | TGI [3]: 3.16 µM | GI50 [33]: 1.7 µM | TGI [33]: 3.46 µM | GI50 [4]: 2.03 µM | TGI [4]: 4.15 µM | GI50 [35]: 1.1 µM | TGI [35]: 3.02 µM | GI50 [36]: 2.42 µM | TGI [36]: 10.8 µM | GI50 [37]: 5.36 µM | TGI [37]: 24.4 µM | GI50 [38]: 1.74 µM | TGI [38]: 3.21 µM | GI50 [39]: 1.46 µM | TGI [39]: 2.95 µM | GI50 [40]: 1.4 µM | TGI [40]: 3.12 µM | GI50 [41]: 2.61 µM | TGI [41]: 10.1 µM | GI50 [42]: 1.66 µM | TGI [42]: 3.39 µM | GI50 [43]: 1.8 µM | TGI [43]: 3.49 µM | GI50 [44]: 1.54 µM | TGI [44]: 3.12 µM | GI50 [45]: 2.6 µM | TGI [45]: 10.9 µM | GI50 [46]: 1.61 µM | TGI [46]: 3.11 µM | GI50 [47]: 1.62 µM | TGI [47]: 4.06 µM | GI50 [48]: 1.66 µM | TGI [48]: 3.05 µM | GI50 [49]: 1.38 µM | TGI [49]: 4.23 µM | GI50 [50]: 1.15 µM | TGI [50]: 3.1 µM | GI50 [51]: 2.57 µM | TGI [51]: 7.77 µM | GI50 [52]: 1.78 µM | TGI [52]: 3.7 µM | GI50 [53]: 1.97 µM | TGI [53]: 7.42 µM | GI50 [54]: 1.81 µM | TGI [54]: 3.32 µM | GI50 [55]: 1.07 µM | TGI [55]: 2.64 µM | GI50 [56]: 2.12 µM | TGI [56]: 6.06 µM | GI50 [57]: 2.04 µM | TGI [57]: 4.53 µM
